In ChEMBL document CHEMBL1134873, “Synthesis and antiparasitic activity of 1H-benzimidazole derivatives” (Bioorg Med Chem Lett, 2002):

Assays:
Trichinella spiralis [1] = assay: Percentage viability reduction of Trichinella spiralis muscle larvae after 3 days of incubation; type: functional; design: concentration or dose not given beside the values
Giardia intestinalis = assay: The compound was tested in vitro against the protozoa Giardia lamblia, for the inhibition of tubulin polymerization in rat brain; type: functional; conditions: Giardia duodenalis
Entamoeba histolytica = assay: The compound was tested in vitro against the protozoa Entamoeba histolytica, for the inhibition of tubulin polymerization in rat brain; type: functional
Trichinella spiralis [2] = assay: Percentage viability reduction of Trichinella spiralis muscle larvae after 3 days of incubation; No reduction observed; type: functional, organism-based

`Clc1ccc2[nH]cnc2c1` showed a Viability (Trichinella spiralis [1]) of 27%, an IC50 (Giardia intestinalis) of 282 nM and an IC50 (Entamoeba histolytica) of 39 nM.

With `CSc1nc2ccccc2[nH]1` the IC50 (Giardia intestinalis) was 45 nM, the IC50 (Entamoeba histolytica) was 393 nM and the Viability (Trichinella spiralis [2]) was “No reduction observed”.

Compound `COC(=O)Nc1nc2cc(Cl)ccc2[nH]1` has a Viability (Trichinella spiralis [1]) of 19%, an IC50 (Giardia intestinalis) of 66 nM and an IC50 (Entamoeba histolytica) of 350 nM.

With `CCCSc1ccc2[nH]c(NC(=O)OC)nc2c1` [ALBENDAZOLE] the Viability (Trichinella spiralis [1]) was 34%.

With `Cc1nc2ccccc2[nH]1` the IC50 (Giardia intestinalis) was 317 nM, the IC50 (Entamoeba histolytica) was 7 nM and the Viability (Trichinella spiralis [2]) was “No reduction observed”.

For `c1ccc2[nH]cnc2c1` [BENZIMIDAZOLE], the IC50 (Giardia intestinalis) was 8 nM, the IC50 (Entamoeba histolytica) was 42 nM and the Viability (Trichinella spiralis [2]) was “No reduction observed”.

Compound `Cc1nc2cc(Cl)ccc2[nH]1` has a Viability (Trichinella spiralis [1]) of 14%, an IC50 (Giardia intestinalis) of 156 nM and an IC50 (Entamoeba histolytica) of 84 nM.

`COC(=O)Nc1nc2ccccc2[nH]1` [CARBENDAZIM] was tested, and the IC50 (Giardia intestinalis) was 57 nM, the IC50 (Entamoeba histolytica) was 204 nM and the Viability (Trichinella spiralis [2]) was “No reduction observed”.

Compound `CSc1nc2cc(Cl)ccc2[nH]1` has a Viability (Trichinella spiralis [1]) of 15%, an IC50 (Giardia intestinalis) of 5 nM and an IC50 (Entamoeba histolytica) of 192 nM.

With `Nc1nc2ccccc2[nH]1` the Viability (Trichinella spiralis [1]) was 9%, the IC50 (Giardia intestinalis) was 1900 nM and the IC50 (Entamoeba histolytica) was 114 nM.

For `COC(=O)Nc1nc2cc(Cl)c(Cl)cc2[nH]1`, the Viability (Trichinella spiralis [1]) was 14%, the IC50 (Giardia intestinalis) was 127 nM and the IC50 (Entamoeba histolytica) was 46 nM.

`Sc1nc2ccccc2[nH]1` [2-MERCAPTOBENZIMIDAZOLE] showed a Viability (Trichinella spiralis [1]) of 11%, an IC50 (Giardia intestinalis) of 40 nM and an IC50 (Entamoeba histolytica) of 133 nM.

`Nc1nc2cc(Cl)c(Cl)cc2[nH]1` was tested, and the Viability (Trichinella spiralis [1]) was 2%, the IC50 (Giardia intestinalis) was 218 nM and the IC50 (Entamoeba histolytica) was 59 nM.

`Sc1nc2cc(Cl)ccc2[nH]1` showed a Viability (Trichinella spiralis [1]) of 13%, an IC50 (Giardia intestinalis) of 81 nM and an IC50 (Entamoeba histolytica) of 5 nM.

`Sc1nc2cc(Cl)c(Cl)cc2[nH]1` showed a Viability (Trichinella spiralis [1]) of 23%, an IC50 (Giardia intestinalis) of 78 nM and an IC50 (Entamoeba histolytica) of 55 nM.

Compound `Clc1cc2nc[nH]c2cc1Cl` has a Viability (Trichinella spiralis [1]) of 18%, an IC50 (Giardia intestinalis) of 358 nM and an IC50 (Entamoeba histolytica) of 96 nM.

With `Nc1nc2ccc(Cl)cc2[nH]1` the Viability (Trichinella spiralis [1]) was 17%, the IC50 (Giardia intestinalis) was 30 nM and the IC50 (Entamoeba histolytica) was 125 nM.

Compound `CSc1nc2cc(Cl)c(Cl)cc2[nH]1` has a Viability (Trichinella spiralis [1]) of 17%, an IC50 (Giardia intestinalis) of 227 nM and an IC50 (Entamoeba histolytica) of 356 nM.

Compound `Cc1nc2cc(Cl)c(Cl)cc2[nH]1` has a Viability (Trichinella spiralis [1]) of 8%, an IC50 (Giardia intestinalis) of 65 nM and an IC50 (Entamoeba histolytica) of 25 nM.
